According to publication PMC5145767 (Neuron, 2016):
Read-outs that look alike come from different tables or passages of the source.

Experiments:
DKaiR1D [1] = molecular target: T1, DKaiR1D (Drosophila melanogaster, UniProt Q9VDH5); format: cell-based; conditions: for activation of DKaiR1D: Xenopus oocytes, ligands of b17 all applied at 10 mM
[2] = test system: DKaiR1D ligand-binding domain; set-up: species or system Drosophila melanogaster; conditions: ligand 1 mM, trypsin 1:20, 60 min
DGluR1A [3] = molecular target: T2, DGluR1A (Drosophila melanogaster, UniProt Q03445); assay: DGluR1A coexpressed with Apis Stg1 in Xenopus oocytes; format: cell-based; conditions: for activation, % of the response to glutamate recorded in the same cell: agonists 3 mM
T2 sequence (Q03445 28-991): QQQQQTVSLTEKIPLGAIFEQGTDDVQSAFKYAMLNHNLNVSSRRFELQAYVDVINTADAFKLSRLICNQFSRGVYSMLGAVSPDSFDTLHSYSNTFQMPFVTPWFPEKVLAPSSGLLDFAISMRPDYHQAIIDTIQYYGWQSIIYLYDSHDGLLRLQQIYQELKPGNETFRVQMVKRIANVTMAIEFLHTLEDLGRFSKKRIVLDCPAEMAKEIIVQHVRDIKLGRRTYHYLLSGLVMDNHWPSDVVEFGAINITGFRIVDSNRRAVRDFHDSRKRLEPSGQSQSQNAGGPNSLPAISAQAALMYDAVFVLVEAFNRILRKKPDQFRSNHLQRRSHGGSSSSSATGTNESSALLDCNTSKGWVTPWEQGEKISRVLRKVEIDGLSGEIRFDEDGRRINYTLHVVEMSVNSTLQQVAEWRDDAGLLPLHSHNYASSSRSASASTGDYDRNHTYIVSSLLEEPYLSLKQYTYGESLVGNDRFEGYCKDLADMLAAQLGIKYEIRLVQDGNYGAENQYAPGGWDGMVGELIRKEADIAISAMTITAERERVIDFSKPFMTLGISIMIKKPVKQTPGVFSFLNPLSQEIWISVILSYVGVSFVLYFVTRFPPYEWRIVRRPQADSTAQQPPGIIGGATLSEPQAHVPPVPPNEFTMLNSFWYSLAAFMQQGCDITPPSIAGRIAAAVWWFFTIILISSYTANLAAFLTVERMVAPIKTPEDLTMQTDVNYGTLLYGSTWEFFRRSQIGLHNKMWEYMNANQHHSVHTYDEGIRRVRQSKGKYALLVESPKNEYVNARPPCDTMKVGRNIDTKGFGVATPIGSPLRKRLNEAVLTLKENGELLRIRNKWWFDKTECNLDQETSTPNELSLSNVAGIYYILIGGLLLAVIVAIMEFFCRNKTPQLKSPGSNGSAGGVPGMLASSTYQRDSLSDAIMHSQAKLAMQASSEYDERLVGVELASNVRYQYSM

[4] = test system: DGluR1A ligand-binding domain; set-up: species or system Drosophila melanogaster; conditions: ligand 1 mM, trypsin 1:20
DGluR1A Y792T [5] = assay: Proteolysis protection assay of DGluR1A Y792T mutant; format: binding, Drosophila melanogaster; conditions: Figure S8B
DGluR1A Y792T [6] = molecular target: DGluR1A Y792T (Drosophila melanogaster, UniProt Q03445, Y792T); assay: Receptor activity of DGluR1A Y792T mutant; format: cell-based; conditions: Figure S8C
DGluR1A Y792T (Drosophila melanogaster, UniProt Q03445, Y792T), sequence (Q03445 28-991 Y792T): as the sequence (Q03445 28-991) above, with Y765T counted along it

DGluR1A [7] = molecular target: T2, DGluR1A; conditions: 1992, cited from earlier work
DKaiR1D Q604R = DKaiR1D Q604R mutant responses in Xenopus oocytes; format: cell-based, Drosophila melanogaster; conditions: 3 μM toxin, 3 mM glutamate, -60 mV
DKaiR1D [8] = molecular target: T1, DKaiR1D; format: cell-based
GluK2 = conditions: ref Plested and Mayer, 2007; cited from earlier work
[9] = 10 mM glutamate, decay fit by sum of two exponentials
[10] = NaCl, NaMeSO3 exchange experiment

N[C@@H](CC(=O)O)C(=O)O [aspartate]
activation of DKaiR1D (DKaiR1D [1]; -60 mV): but not AMPA, aspartate or NMDA produced activation
protection from digestion by trypsin [2]: to a lesser extent aspartate were also protective
activation, % of the response to glutamate recorded in the same cell (DGluR1A [3]; -60 mV, Apis Stg1): 28 ± 8%

N[C@@H](CCCP(=O)(O)O)C(=O)O [L-AP5]
block of responses to 1 mM glutamate (DKaiR1D [1]; antagonist 10 mM, -60 mV): 35.7 ± 1.4%
block of responses to 10 mM glutamate (DKaiR1D [1]; antagonist 10 mM, -60 mV): 11.7 ± 1.2%

N[C@H](CCCP(=O)(O)O)C(=O)O [D-AP5, 2(R)-amino-5-phosphonopentanoic acid]
block of responses to 1 mM glutamate (DKaiR1D [1]): 22.7 ± 0.8%
block of responses to 10 mM glutamate (DKaiR1D [1]): 16.6 ± 1.0%

N[C@@H](Cn1oc(=O)[nH]c1=O)C(=O)O [quisqualate, quisqualic acid]
amplitude of responses relative to those to glutamate (DKaiR1D [1]): 0.78 ± 0.03
activation of DKaiR1D (DKaiR1D [1]; -60 mV): produced activation
protection from digestion by trypsin [2]: prevented digestion by trypsin
activation, % of the response to glutamate recorded in the same cell (DGluR1A [3]; -60 mV, Apis Stg1): 41 ± 3%
protection from digestion by trypsin [4]: protective
binding in proteolysis protection assay (DGluR1A Y792T [5]): binds strongly
receptor activation (DGluR1A Y792T [6]): produces full receptor activation

NC(CCCP(=O)(O)O)C(=O)O (centres unmarked) [AP5]
activation of DKaiR1D (DKaiR1D [1]; -60 mV): nor AP5 (Figure S5) produced DKaiR1D activation
protection from digestion by trypsin [2]: protective
protection from digestion by trypsin [4]: but not AMPA, NMDA, aspartate or AP5 were protective

CN[C@H](CC(=O)O)C(=O)O [NMDA]
IC50 (DKaiR1D [1]): 900 µM
activation of DKaiR1D (DKaiR1D [1]; -60 mV): but not AMPA, aspartate or NMDA produced activation
block of responses to 10 mM glutamate (DKaiR1D [1]; antagonist 10 mM, -60 mV): 79.2 ± 2.2%
protection from digestion by trypsin [2]: protective
activation of DGluR1A (DGluR1A [3]; agonist 3 mM, -60 mV, Apis Stg1): no activation
protection from digestion by trypsin [4]: but not AMPA, NMDA, aspartate or AP5 were protective

N#Cc1cc2[nH]c(=O)c(=O)[nH]c2cc1[N+](=O)[O-] [CNQX]
block of responses to 10 mM glutamate (DKaiR1D [1]; antagonist 10 mM, -60 mV): 34.3 ± 3.0%
protection from digestion by trypsin [2]: weak protection
protection from digestion by trypsin [4]: protective

Cc1o[nH]c(=O)c1CC(N)C(=O)O (centres unmarked) [AMPA]
activation of DKaiR1D (DKaiR1D [1]; -60 mV): but not AMPA, aspartate or NMDA produced activation
protection from digestion by trypsin [2]: inactive
activation, % of the response to glutamate recorded in the same cell (DGluR1A [3]; -60 mV, Apis Stg1): 40 ± 4%
protection from digestion by trypsin [4]: but not AMPA, NMDA, aspartate or AP5 were protective
binding in proteolysis protection assay (DGluR1A Y792T [5]): but not AMPA, binds strongly
receptor activation (DGluR1A Y792T [6]): but not AMPA, binds strongly and produces full receptor activation

C=C(C)[C@H]1CN[C@H](C(=O)O)[C@H]1CC(=O)O [kainate]
activation of DKaiR1D (DKaiR1D [1]; -60 mV): produced activation
protection from digestion by trypsin [2]: prevented digestion by trypsin
EC50 (DGluR1A [3]): 125 ± 4 µM
protection from digestion by trypsin [4]: protective
EC50 (DGluR1A [7]; read-out: EC50 for activation, prior studies ref Ultsch et al.): 75 µM

philanthotoxin-433
block of wild type responses to glutamate by extracellular toxin (DKaiR1D [1]; 3 μM toxin, 3 mM glutamate, -60 mV, several minutes for full recovery): blocked
block of Q604R mutant responses to glutamate (DKaiR1D Q604R): did not block
inhibition of DGluR1A (DGluR1A [7]; ref Ultsch et al.): inhibition of DGluR1A by philanthotoxin

N[C@@H](CCC(=O)O)C(=O)O [glutamate]
deactivation rate constant (DKaiR1D [8]; 10 mM glutamate applied for 1 ms): 2523 ± 218 s⁻¹
10–90% rise time (DKaiR1D [8]; 10 mM glutamate applied for 1 ms, outside-out patch): 217 ± 6 μs
desensitization kfast (DKaiR1D [8]; [9]): 1317 ± 105 s⁻¹
desensitization kslow (DKaiR1D [8]; [9]): 107 ± 22 s⁻¹
onset of desensitization kfast (DKaiR1D [8]; CsCl): 1884 ± 99 s⁻¹
onset of desensitization kslow (DKaiR1D [8]; CsCl): 192 ± 28 s⁻¹
onset of desensitization kfast (DKaiR1D [8]; NaCl, CsCl exchange experiment): 1504 ± 90 s⁻¹
onset of desensitization kslow (DKaiR1D [8]; NaCl, CsCl exchange experiment): 165 ± 27 s⁻¹
onset of desensitization kfast (DKaiR1D [8]; [10]): 1970 ± 88 s⁻¹
onset of desensitization kslow (DKaiR1D [8]; [10]): 190 ± 31 s⁻¹
onset of desensitization kfast (DKaiR1D [8]; NaMeSO3): 1985 ± 68 s⁻¹
onset of desensitization kslow (DKaiR1D [8]; NaMeSO3): 236 ± 39 s⁻¹
recovery from desensitization kslow (DKaiR1D [8]; twin pulse protocol, sum of two exponentials): 9.9 s⁻¹
EC50 (DKaiR1D [1]): 10700 ± 500 µM
activation of DKaiR1D (DKaiR1D [1]; -60 mV): produced activation
protection from digestion by trypsin [2]: prevented digestion by trypsin
EC50 (DGluR1A [3]): 136 ± 8 µM
protection from digestion by trypsin [4]: protective
increase of rate of onset of desensitization on exchange of NaMeSO3 for NaCl (GluK2): 7 fold
